Data set [1] relates to LitPpy, chimeric luciferase of LitWT residues 1-439 and PpyWT residues 440-550. In words: Steady-state kinetic constants, bioluminescence activity. The data set is classed as biochemical, Luciola italica / Photinus pyralis. As to conditions: pH 7.8. Here is the method:
(§1) Reactions were initiated by injection of solutions of the substrate being maintained at saturating concentration. Kinetic constants were determined using a nonlinear least squares method of the Enzyme Kinetics Pro software (SynTex), which fits data from the Michalis-Menten equation to a rectangular hyperbola. The corresponding kcat values were obtained by dividing the Vmax values by the amount (μmol) of each luciferase in the assay mixtures.

Data set [2] addresses Photinus pyralis luciferase, recombinant wild type (PpyWT), SEQ ID NO: 4, with N-terminal peptide GPLGS (Photinus pyralis, UniProt P08659). The data set is described as above. Format: biochemical. The settings on record: pH 7.8; Vmax from LH2 Km measurement.
The test system of data set [3] is Ppy RE-TSLit, chimeric luciferase of Ppy RE-TS N-domain and LitWT C-domain. Described as above. The data set is classed as biochemical, Photinus pyralis / Luciola italica. As to conditions: pH 7.8. Here is the method:
as §1

The test system of data set [4] is PpyLit (chimeric luciferase, SEQ ID NO: 8) variant I232A/I351V/E354K. The description is as above. The settings on record: pH 7.8. The data set is classed as biochemical, Photinus pyralis / Luciola italica. The protocol:
as §1

Data set [5] concerns PpyLit (chimeric luciferase, SEQ ID NO: 8) variant I351V/E354K. Described as above. The data set is classed as biochemical, Photinus pyralis / Luciola italica. The settings on record: pH 7.8. Here is the method:
as §1

Data set [6] relates to PpyLit (chimeric luciferase, SEQ ID NO: 8) variant I351V/E354K/F465R. Described as above. The data set is classed as biochemical, Photinus pyralis / Luciola italica. As to conditions: pH 7.8. Here is the method:
as §1

Data set [7] deals with PpyLit (chimeric luciferase, SEQ ID NO: 8) variant F465R. The data set is described as above. Format: biochemical, Photinus pyralis / Luciola italica. As to conditions: pH 7.8. Here is the method: as §1
Data set [8] has as its system Ppy GR-TSLit, chimeric luciferase of Ppy GR-TS N-domain and LitWT C-domain. The description is as above. Format: biochemical, Photinus pyralis / Luciola italica. As to conditions: pH 7.8. The protocol:
as §1

Data set [9] deals with PpyLit (chimeric luciferase, SEQ ID NO: 8) variant S284T/F465R. The description is as above. Format: biochemical, Photinus pyralis / Luciola italica. As to conditions: pH 7.8. The protocol:
as §1

Data set [10] concerns PpyLit (chimeric luciferase, SEQ ID NO: 8) variant I232A/E354K. The description is as above. The data set is classed as biochemical, Photinus pyralis / Luciola italica. The settings on record: pH 7.8. The protocol:
as §1

For data set [11], the system named is PpyLit, chimeric luciferase of PpyWT residues 1-439 and LitWT residues 440-550, SEQ ID NO: 8. The data set is described as above. The data set is classed as biochemical, Photinus pyralis / Luciola italica. As to conditions: pH 7.8. Here is the method: as §1
Data set [12] relates to PpyLit (chimeric luciferase, SEQ ID NO: 8) variant S284T/I351V/E354K. The description is as above. As to conditions: pH 7.8. Format: biochemical, Photinus pyralis / Luciola italica. Here is the method:
as §1

The test system of data set [13] is PpyLit (chimeric luciferase, SEQ ID NO: 8) variant S284T. The description is as above. Format: biochemical, Photinus pyralis / Luciola italica. As to conditions: pH 7.8. Here is the method: as §1
Data set [14] relates to PpyLit, chimeric luciferase of PpyWT residues 1-439 and LitWT residues 440-550, SEQ ID NO: 8. The experiment in a line: Rate of oxidative half-reaction with synthetic LH2-AMP. Format: biochemical, Photinus pyralis / Luciola italica. The settings on record: faster than PpyWT; LH2-AMP as substrate, pH 7.8. The protocol: The estimated rates of the oxidative half-reactions were based on bioluminescence activity assays using synthetic LH2-AMP as the substrate. Assays (0.510 mL) in 50 mM glycylglycine buffer, pH 7.8, contained 0.1 mL aliquots of LH2-AMP solution (final concentration 1.5-35 μM) in 10 mM sodium acetate, pH 4.5. Immediately, light reactions were initiated by injections of 10 μL of luciferase enzymes (0.4-1 μg in CBA). Kinetic constants were determined using a nonlinear least squares method of the Enzyme Kinetics Pro software (SynTex), which fits data from the Michalis-Menten equation to a rectangular hyperbola. The corresponding kcat values were obtained by dividing the Vmax values by the final amounts (μmol) of each luciferase in the assay mixtures.

For data set [15] the test system is unchanged. The experiment in a line: Relative rate of adenylate formation (L-AMP formation from dehydroluciferin), fluorescence-based. The settings on record: faster than PpyWT, pH 7.4. Format: biochemical, Photinus pyralis / Luciola italica. The protocol: Using an excitation wavelength of 350 nm, the luciferase-catalyzed formation of L-AMP from dehydroluciferin (L), initiated by the addition of Mg-ATP, was assessed by following the decrease in the intensity of the 440 nm fluorescence of the initial enzyme-L complex. The change in fluorescence was used to estimate the rates of L-AMP formation catalyzed by the luciferases. Assays (0.4 mL) in 50 mM Tris buffer, pH 7.4 contained 2.8 μM enzyme and 0.55 μM L. The initial fluorescence at 440 nm was recorded and then the decrease was monitored following the rapid injection of 50 μL solutions of varying concentrations of Mg-ATP in the same buffer. The rates of decrease (slopes) were calculated and used to determine the initial velocities for each Mg-ATP concentration. The data were fitted using a nonlinear least squares method of the Enzyme Kinetics Pro software (SynTex), which fits data from the Michalis-Menten equation to a rectangular hyperbola, and the Vmax values were obtained. The corresponding kcat values were obtained by dividing the Vmax values (μmol/s) by the final amounts (μmol) of each luciferase in the assay mixtures.

Substrate in data set [16]: O=C(O)[C@H]1CSC(c2nc3ccc(O)cc3s2)=N1
In words: purified protein, by the assay type. The settings on record: other: pH 7.8, Mg-ATP saturating, 37.0 °C.

Substrate in data set [17]: Nc1ncnc2c1ncn2[C@@H]1O[C@H](COP(=O)(O)OP(=O)(O)OP(=O)(O)O)[C@@H](O)[C@H]1O
The experiment in a line: purified protein, by the assay type. The settings on record: other: pH 7.8, LH2 saturating, 37.0 °C.

Where [18] appears, read: read-out: Km LH2, Mg-ATP saturating.

Sequence of Photinus pyralis luciferase, recombinant wild type (PpyWT), SEQ ID NO: 4, with N-terminal peptide GPLGS (P08659 whole entry): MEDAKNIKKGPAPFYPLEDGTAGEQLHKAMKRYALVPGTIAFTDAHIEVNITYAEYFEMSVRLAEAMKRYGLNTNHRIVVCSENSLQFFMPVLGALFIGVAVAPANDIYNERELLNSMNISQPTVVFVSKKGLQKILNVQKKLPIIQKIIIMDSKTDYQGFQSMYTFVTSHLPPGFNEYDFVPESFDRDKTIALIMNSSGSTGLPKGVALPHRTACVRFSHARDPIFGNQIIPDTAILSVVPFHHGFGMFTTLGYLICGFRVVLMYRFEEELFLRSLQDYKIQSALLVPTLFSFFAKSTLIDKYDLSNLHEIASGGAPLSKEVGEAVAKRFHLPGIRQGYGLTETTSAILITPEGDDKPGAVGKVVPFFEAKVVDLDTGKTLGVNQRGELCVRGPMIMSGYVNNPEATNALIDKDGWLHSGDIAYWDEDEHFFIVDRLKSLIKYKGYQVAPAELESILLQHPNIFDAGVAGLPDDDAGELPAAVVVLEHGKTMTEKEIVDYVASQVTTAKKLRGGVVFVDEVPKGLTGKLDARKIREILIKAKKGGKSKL

The kcat is the number of substrate molecules converted per active site and unit of time at saturation. Broadly, the Km is the concentration of substrate that gives half-maximal velocity. For the molecule `O=C(O)[C@H]1CSC(c2nc3ccc(O)cc3s2)=N1` [LH2, D-firefly luciferin], the kcat in data set [1] (Vmax from LH2 Km measurement) was 0.033 ± 0.001 s⁻¹; in data set [2], 0.18 ± 0.01 s⁻¹; in data set [3] (Vmax from LH2 Km measurement) it was 0.09 ± 0.003 s⁻¹; in data set [4] (Vmax from LH2 Km measurement), 0.24 ± 0.01 s⁻¹; in data set [5] (Vmax from LH2 Km measurement), 0.30 ± 0.02 s⁻¹; in data set [6] (Vmax from LH2 Km measurement) it was 0.29 ± 0.01 s⁻¹. In addition, the kcat in [7] (Vmax from LH2 Km measurement) is 0.34 ± 0.02 s⁻¹; in data set [8] (Vmax from LH2 Km measurement), 0.079 ± 0.001 s⁻¹; in data set [9] (Vmax from LH2 Km measurement), 0.10 ± 0.01 s⁻¹; in [10] (Vmax from LH2 Km measurement), 0.25 ± 0.01 s⁻¹; in data set [11] (Vmax from LH2 Km measurement) it was 0.32 ± 0.02 s⁻¹; in data set [12] (Vmax from LH2 Km measurement), 0.13 ± 0.01 s⁻¹. In data set [13] (Vmax from LH2 Km measurement), the kcat came out at 0.10 ± 0.01 s⁻¹. Also, the Km turned out to be 54 ± 5 µM in [1] (setting [18]); 51 ± 3 µM in data set [3] (setting [18]); 51 ± 5 µM in data set [4] (setting [18]); 52 ± 5 µM in data set [5] (setting [18]); 83 ± 3 µM in data set [6] (setting [18]); 31 ± 3 µM in data set [7] (setting [18]). Moreover, the Km in data set [8] (setting [18]) is 123 ± 9 µM; in data set [9] (setting [18]), 22 ± 3 µM; in data set [10] (setting [18]), 24 ± 3 µM; in data set [11] (setting [18]) it was 25 ± 2 µM; in data set [12] (setting [18]), 49 ± 5 µM; in data set [13] (setting [18]) it was 15 ± 2 µM.
As to `Nc1ncnc2c1ncn2[C@@H]1O[C@H](COP(=O)(O)OC(=O)[C@H]2CSC(c3nc4ccc(O)cc4s3)=N2)[C@@H](O)[C@H]1O` [LH2-AMP], the “rate of oxidative half reaction” value in data set [14] is recorded as about 1.35 fold.
On to `O=C(O)c1csc(-c2nc3ccc(O)cc3s2)n1` [L, dehydroluciferin], for which the “rate of adenylate formation half reaction” value in data set [15] was about 1.35 fold.

B1: LitWT, recombinant Luciola italica luciferase containing Lys547Gly/Met548Gly, SEQ ID NO: 6, with N-terminal peptide GPLGS (Luciola italica; K547G/M548G) (protein)
chain: METEREENVVYGPLPFYPIEEGSAGIQLHKYMQQYAKLGAIAFSNALTGVDISYQQYFDITCRLAEAMKNYGMKPEGHIALCSENCEEFFIPVLAGLYIGVTVAPTNEIYTLRELNHSLGIAQPTIVFSSRKGLPKVLEVQKTVTCIKTIVILDSKVNFGGYDCVETFIKKHVELGFPATSFVPIDVKDRKHHIALLMNSSGSTGLPKGVEITHEGTVTRFSHAKDPIYGNQVSPGTAILTVVPFHHGFGMFTTLGYFACGYRIVMLTKFDEELFLRTLQDYKCTSVILVPTLFAILNRSELLDKFDLSNLTEIASGGAPLAKEIGEAVARRFNLPGVRQGYGLTETTSAFIITPEGDDKPGASGKVVPLFKVKIIDLDTKKTLGVNRRGEICVKGPSLMLGYTNNPEATRETIDEEGWLHTGDIGYYDEDEHFFIVDRLKSLIKYKGYQVPPAELESVLLQHPNIFDAGVAGVPDSEAGELPGAVVVMEKGKTMTEKEIVDYVNSQVVNHKRLRGGVRFVDEVPKGLTGKIDAKVIREILKKPQAGG
Turning to B1, in [16], the Km was found to be 90 ± 9 µM and the kcat worked out at 0.14 ± 0.01 s⁻¹. For the same molecule, the Km in [17] came to 180 ± 14 µM.

Source of the values: patent publication US20150152395A1, “CHIMERIC LUCIFERASES” (Connecticut College, priority 2012, published 2015).
